The text below walks through data of patent US20250042961A1, “P53 PEPTIDOMIMETIC MACROCYCLES” (MERCK SHARP & DOHME LLC, priority 2021, published 2025).

Values after ≈ are worked out from the molar mass of the structure shown. Where two headings read alike, the source gives them in different places. *1 amine or outer side, *2 acyl side, *3 side chain or, on linkers, in order; H or OH if unused. Where a SMILES comes first, the peptide text is derived from it. Bridges are numbered along the chain shown (N, C = ends). [ ]: non-standard residue; d: D form. ξ: configuration not given here. ξαMeNle(6-ylidene) = CC(CCCC=[*:3])(N[*:1])C(=O)[*:2]; dPhe(4-CF3) = N[C@H](Cc1ccc(C(F)(F)F)cc1)C(=O)O; dTrp(6-F) = N[C@H](Cc1c[nH]c2cc(F)ccc12)C(=O)O Bounds are passed on as bounds.

The target of data set [1] is T1, MDM2 (1-125) (Homo sapiens, UniProt Q00987).
T1 construct: GST (N); His6 (N); TEV cleavage site ENLYFQG (N); made in house; host or cells: Escherichia coli BL21 (DE3) Rosetta T1R
Briefly: Competitive fluorescence anisotropy assay (FP Kd MDM2). Format: binding. An excerpt: For use in the peptide binding assay, a human MDM2 1-125 sequence was cloned into a pNIC-GST vector. The TEV (tobacco etch virus) cleavage site was changed from ENLYFQS (SEQ ID NO: 13) to ENLYFQG (SEQ ID NO: 14) to give a fusion protein with the following sequence:
[P] is the protein concentration (MDM2), [L] is the labeled peptide concentration, r is the anisotropy measured, r0 is the anisotropy of the free peptide, rb is the anisotropy of the MDM2-FAM-labeled peptide complex, Kd is the dissociation constant, [L]t is the total FAM labeled peptide concentration, and [P]t is the total MDM2 concentration. […] These values were then used to determine apparent Kd values of the respective competing ligands in subsequent competition assays in fluorescence anisotropy experiments. MDM2 and MDM4 competition experiments were performed with their respective concentrations held constant at 250 nM and 75 nM, in the presence of 50 nM of FAM-labeled 12/1. The competing molecules were then titrated against the complex of the FAM-labeled peptide and protein. Apparent Kd values were determined by fitting the experimental data to the equations shown below:
[L]st and [L]t denote labeled ligand and total unlabeled ligand input concentrations, respectively. Kd2 is the dissociation constant of the interaction between the unlabeled ligand and the protein.
In all competition experiments, it is assumed that [P]t>[L]st, otherwise considerable amounts of free labeled ligand would always be present and would interfere with measurements. Kd1 is the apparent Kd for the labeled peptide used and has been experimentally determined as described in the previous paragraph. The FAM-labeled peptide was dissolved in dimethyl sulfoxide (DMSO) at 1 mM and diluted into experimental buffer. Readings were carried out with an Envision Multilabel Reader (PerkinElmer). Experiments were carried out in PBS (2.7 mM KCl, 137 mM NaCl, 10 mM Na2HPO4 and 2 mM KH2PO4 (pH 7.4)) and 0.1% Tween-20 buffer. All titrations were carried out in triplicate. Curve-fitting was carried out using Prism 4.0 (GraphPad®). […] Negative control titrations of the ligands under investigation were also carried out with the fluorescently labeled peptide (in the absence of MDM2) to ensure no interactions were occurring between the ligands and the FAM-labeled peptide. […] Measurements were taken a minimum of three times (biological replicates) and values are reported as geometric means of the replicates.
For orientation: Fluorescence polarisation rises when a labelled molecule tumbles more slowly, as on binding a larger partner.

Data set [2] has as its system p53 responsive β-lactamase reporter in HCT116 cells. Briefly: p53 beta-lactamase reporter gene cellular functional assay. Format: cell-based. Here is the method:
HCT116 cells were stably transfected with a p53 responsive β-lactamase reporter and expanded in McCoy's 5A Medium with 10% fetal bovine serum (FBS), Blasticidin, and Penicillin/Streptomycin and then transferred to 1.5 mL freezing vials and stored under liquid nitrogen in growth media containing 5% DMSO. […] The cells were then seeded into a 384-well plate at a density of 8000 cells per well. […] The final working concentration of DMSO was 0.5%. β-lactamase activity was detected using the ToxBLAzer Dual Screen (Invitrogen), as per the manufacturer's instructions. Measurements were made using the Envision multiplate reader (PerkinElmer). […] Measurements were taken a minimum of three times (biological replicates) and values are reported as geometric means of the replicates.
For orientation: A reporter such as luciferase makes a cellular process visible.

In data set [3] the test system is Jump-In T-REx CHO-K1 BLA cells. In words: Tetracycline beta-lactamase reporter gene cellular assay (counterscreen). The data set is classed as cell-based. Here is the method: This assay was based on Jump-In™ T-REx™ CHO-K1 BLA cells containing a stably integrated β-lactamase under the control of an inducible cytomegalovirus (CMV) promoter. Cells were maintained in Dulbecco's Minimal Eagle Medium (DMEM) with 10% fetal bovine serum (FBS), Blasticidin, and Penicillin/Streptomycin and then transferred to 1.5 mL freezing vials and stored under liquid nitrogen in growth media containing 5% DMSO. […] Cells were seeded into a 384-well plate at a density of 4000 cells per well. […] The final working concentration of DMSO was 0.5%. β-lactamase activity was detected using the ToxBLAzer Dual Screen (Invitrogen), as per the manufacturer's instructions. Measurements were carried out using the Envision multiplate reader (PerkinElmer). Counterscreen activity was defined as the amount of β-lactamase activity induced by tetracycline. Measurements were taken a minimum of three times (biological replicates) and values are reported as geometric means of the replicates.

Data set [4] deals with HCT116. Format: cell-based. The source says:
(§1) To further establish the impact of the above modification in making cleaner “drug” like compounds, we profiled a set of compounds of the invention in cellular proliferation assays (Table 3).

Data set [5] deals with p53 null Ca Ski. The data set is classed as cell-based. Conditions: 72 h.
Excerpt: as §1

A short description of data set [6]: Solubility (PBS, pH 7).
Where [7] appears, read: read-out: p53 activity EC50 (0% FBS, 4 h), 0% FBS, 4 h.
Setting [8] is: read-out: p53 activity EC50 (10% FBS, 16 h), 10% FBS, 16 h.
[9] abbreviates: read-out: Counter screen EC50 (0% FBS, 4 h), 0% FBS, 4 h.
Where [10] appears, read: read-out: Counter screen EC50 (10% FBS, 16 h), 10% FBS, 16 h.

T1 sequence (Q00987 with tags, fused parts or gaps): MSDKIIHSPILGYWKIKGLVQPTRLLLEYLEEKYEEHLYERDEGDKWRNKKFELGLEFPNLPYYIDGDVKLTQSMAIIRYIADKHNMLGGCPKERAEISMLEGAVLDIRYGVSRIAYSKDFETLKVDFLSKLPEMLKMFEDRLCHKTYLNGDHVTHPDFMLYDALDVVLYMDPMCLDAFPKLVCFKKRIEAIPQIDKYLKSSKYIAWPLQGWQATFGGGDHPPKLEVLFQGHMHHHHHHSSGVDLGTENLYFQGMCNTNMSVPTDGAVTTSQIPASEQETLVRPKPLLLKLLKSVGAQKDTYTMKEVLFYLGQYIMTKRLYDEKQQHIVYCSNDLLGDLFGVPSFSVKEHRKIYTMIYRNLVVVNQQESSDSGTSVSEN

What is called Kd is the equilibrium constant for the complex coming apart. Low values mean tighter binding, high ones weaker binding. For orientation: EC50 means the concentration that produces a half-maximal response. In data set [1], `CC(=O)N[C@@H](C(=O)N[C@H](C)C(=O)N[C@H](Cc1c[nH]c2cc(F)ccc12)C(=O)N[C@H](Cc1ccc(O)cc1)C(=O)N[C@H](C)C(=O)NC1(C)CCC/C=C\CCCC(C)(C(=O)N[C@H](CC(C)C)C(=O)N[C@H](CO)C(=O)N[C@H](C)C(=O)N[C@H](C)C(=O)N[C@H](C)C(=O)N[C@H](C)C(=O)N[C@H](C)C(=O)N[C@H](C)C(N)=O)NC(=O)[C@@H](CCC(N)=O)NC(=O)[C@@H](CCC(=O)O)NC(=O)[C@@H](Cc2ccc(C(F)(F)F)cc2)NC1=O)[C@H](C)O` (stereo partly drawn) [Compound 4, Acetyl-^DPMI-δ-(6-10 olefinstaple) (D-K9D-Q, D-R12D-S, 6x(D-A)polypeptidetail)-NH2] (Ac-[dT][dA][dTrp(6-F)][dY][dA][ξαMeNle(6-ylidene)][dPhe(4-CF3)][dE][dQ][ξαMeNle(6-ylidene)][dL][dS][dA][dA][dA][dA][dA][dA]-NH2; staple (Z) 6-10) came in with a Kd of 0.0032 µM. Further, the “overall improvement of cellular activity compared to parent peptide” value in data set [2] (10% serum) was 100 fold. For the same compound, the EC50 in data set [2] (setting [7]) is 0.61 µM; in data set [2] (setting [8]), 0.28 µM; in data set [2] (read-out: p53 activity EC50 (10% FBS, 16 h), 10% FBS, 16 h, listed as compound 4) it was 0.3 µM; in data set [3] (setting [9]) it was more than 50 µM; in data set [3] (setting [10]), more than 50 µM; in data set [4] (72 h), 1.48 µM. In addition, a half-maximal effect in data set [5] (EC50) was put at 31.1 µM. Moreover, the “improvement of cell efficacy in HCT116 proliferation versus compound 2” value in data set [4] is “greater than 6 fold”. Also, the “HCT116 proliferation % Max” value in data set [4] (72 hours, 10% serum) turned out to be 84.5%^. The “p53 null Ca Ski proliferation % Max (inhibition at maximum concentration)” value in data set [5] was determined as 66%.
`CC(=O)N[C@@H](C(=O)N[C@H](C)C(=O)N[C@H](Cc1c[nH]c2cc(F)ccc12)C(=O)N[C@H](Cc1ccc(O)cc1)C(=O)N[C@H](C)C(=O)NC1(C)CCC/C=C\CCCC(C)(C(=O)N[C@H](CC(C)C)C(=O)N[C@H](CO)C(=O)N[C@H](C)C(=O)N[C@H](C)C(=O)N[C@H](C)C(=O)N[C@H](CCC(=O)O)C(=O)N[C@H](C)C(=O)N[C@H](C)C(N)=O)NC(=O)[C@@H](CCC(N)=O)NC(=O)[C@@H](CCC(=O)O)NC(=O)[C@@H](Cc2ccc(C(F)(F)F)cc2)NC1=O)[C@H](C)O` (stereo partly drawn) [Compound 7, Acetyl-^DPMI-δ-(6-10 olefinstaple) (D-K9D-Q, D-R12D-S, 3x(D-Ala)-(D-Glu)-2x(D-Ala)polypeptidetail)-NH2] (Ac-[dT][dA][dTrp(6-F)][dY][dA][ξαMeNle(6-ylidene)][dPhe(4-CF3)][dE][dQ][ξαMeNle(6-ylidene)][dL][dS][dA][dA][dA][dE][dA][dA]-NH2; staple (Z) 6-10): in data set [1], binding was characterised by a dissociation constant (Kd) of 0.00043 µM. Moreover, the EC50 in data set [2] (setting [7]) is 1.41 µM; in data set [2] (setting [8]), 0.79 µM; in data set [3] (setting [9]), more than 50 µM; in data set [3] (setting [10]) it was more than 50 µM.
As usually defined, the solubility is the concentration that dissolves in the medium under given conditions. `CC(=O)N[C@@H](C(=O)N[C@H](C)C(=O)N[C@H](Cc1c[nH]c2cc(F)ccc12)C(=O)N[C@H](Cc1ccc(O)cc1)C(=O)N[C@H](C)C(=O)NC1(C)CCC/C=C\CCCC(C)(C(=O)N[C@H](CC(C)C)C(=O)N[C@H](CO)C(=O)N[C@H](C)C(=O)N[C@H](C)C(=O)N[C@H](C)C(N)=O)NC(=O)[C@@H](CCC(N)=O)NC(=O)[C@@H](CCC(=O)O)NC(=O)[C@@H](Cc2ccc(C(F)(F)F)cc2)NC1=O)[C@H](C)O.N` (stereo partly drawn) [Compound 3, Acetyl-^DPMI-δ-(6-10 olefinstaple) (D-K9D-Q, D-R12D-S, 3x(D-A)polypeptidetail)-NH2] (Ac-[dT][dA][dTrp(6-F)][dY][dA][ξαMeNle(6-ylidene)][dPhe(4-CF3)][dE][dQ][ξαMeNle(6-ylidene)][dL][dS][dA][dA][dA]-NH2; staple (Z) 6-10) came in with a Kd in data set [1] of 0.0031 µM. Besides, the EC50 in data set [2] (setting [7]) was 1.44 µM; in data set [2] (setting [8]), 4.34 µM; in data set [3] (setting [9]) it was more than 50 µM; in data set [3] (setting [10]), more than 50 µM. The solubility in data set [6] was 140 µM.
In the case of `CC(=O)N[C@@H](C(=O)N[C@H](C)C(=O)N[C@H](Cc1c[nH]c2cc(F)ccc12)C(=O)N[C@H](Cc1ccc(O)cc1)C(=O)N[C@H](C)C(=O)NC1(C)CCC/C=C\CCCC(C)(C(=O)N[C@H](CC(C)C)C(=O)N[C@H](CO)C(=O)N[C@H](C)C(=O)N[C@H](C)C(=O)N[C@H](C)C(=O)N[C@H](C)C(=O)N[C@H](C)C(=O)N[C@H](C)C(=O)N[C@H](C)C(=O)N[C@H](C)C(=O)N[C@H](C)C(N)=O)NC(=O)[C@@H](CCC(N)=O)NC(=O)[C@@H](CCC(=O)O)NC(=O)[C@@H](Cc2ccc(C(F)(F)F)cc2)NC1=O)[C@H](C)O` (stereo partly drawn) [Compound 5, Acetyl- ^DPMI-δ-(6-10 olefinstaple) (D-K9D-Q, D-R12D-S, 9x(D-A)polypeptidetail)-NH2] (Ac-[dT][dA][dTrp(6-F)][dY][dA][ξαMeNle(6-ylidene)][dPhe(4-CF3)][dE][dQ][ξαMeNle(6-ylidene)][dL][dS][dA][dA][dA][dA][dA][dA][dA][dA][dA]-NH2; staple (Z) 6-10), binding in data set [1] was put at a Kd of 0.0217 µM. Further, the EC50 is not below 50 µM in data set [2] (setting [7]), more than 50 µM in data set [2] (setting [8]), more than 50 µM in data set [3] (setting [9]) and more than 50 µM in data set [3] (setting [10]). Besides, the solubility in data set [6] is 16 µM (≈ 35.7 µg/mL).
